# Values of other authors, collected in article PMC11696226 (Nature Communications, 2025).
# Like-named read-outs stand apart in the source and are kept apart here.
# Tested on: metastatic TNBC / breast cancer
Compound,"median OS (TNBC, pooled EMBRACE and Study 301)","median PFS (TNBC, pooled EMBRACE and Study 301, 199 patients)","median OS (ASCENT, metastatic TNBC)","median PFS (ASCENT, metastatic TNBC, ≥2 lines of chemotherapy)","HR for OS vs conventional chemotherapy (ASCENT, p < 0.001)","HR for PFS vs conventional chemotherapy (ASCENT, p < 0.001)"
C=C1C[C@@H]2CC[C@@]34C[C@H]5O[C@H]6[C@@H](O3)[C@H]3O[C@H](CC[C@@H]3O[C@H]6[C@H]5O4)CC(=O)C[C@@H]3[C@@H](OC)[C@@H](C[C@H](O)CN)O[C@H]3C[C@H]3O[C@@H](CC[C@@H]1O2)C[C@@H](C)C3=C [eribulin],12.4 month,2.8 month,,,,
SG: antibody-drug conjugate,,,12.1 months,5.6 months,0.48,0.41
